Measured values reported in a melting point compilation (Tetko et al.; mined from patent text by program, amines drawn as free bases though some values may be those of a salt).

Row | Compound | melting point [°C]
1 | CCCCCCCCC=CCCCCCCCC(=O)OCCCCCCCCCC | 70
2 | C=CCCCCc1ccc(C(=O)O)cc1 | 79 to 82
3 | NC(=S)NCc1cccs1 | 99 to 101
4 | COCCN=Cc1cc(OC)c(OC)cc1[N+](=O)[O-] | 65 to 66
5 | CC1(C)Oc2c(ccc3oc(C(=O)O)cc(=O)c23)-c2ccc(Cl)cc21 | 257 to 258
6 | Cn1c(-c2ccccn2)cc2onc(-c3ccccc3)c2c1=O | 160 to 162
7 | CCCCOc1ccc(C(=O)Nc2ccc3cc(CN4CCCC4CC(C)C)cnc3c2C)cc1 (stereo unspecified) | 128 to 130
8 | C(=Cc1ccc(-c2ccccc2)cc1)c1ccccc1 | 224
9 | Cn1c(C(F)(F)F)cc(=O)n(-c2cc(S(=O)(=O)NC(=O)OCc3ccccc3)c(Cl)cc2F)c1=O | 231 to 232
10 | COC(=O)[C@H](O)[C@@H](NC(=O)OC(C)(C)C)c1ccc(N(C)C)cc1 | 120
11 | O=P1(O)Oc2ccccc2-c2cc(F)ccc21 | 240
12 | CC(=O)Nc1cc(O)c(C(=O)O)cc1NC(=N)N | 334 to 357
13 | O=C(CO)NCc1ccc2ccn(C3CCN(CCc4ccc(F)cc4)CC3)c2c1 | 76 to 78
14 | Fc1c(F)c(F)c(OC2(c3ccccc3)CCN(Cc3ccccc3)CC2)c(F)c1F | 80 to 83
15 | Cc1oc(-c2ccccc2)nc1COc1ccc2cc(CCCCC#N)oc2c1 | 87 to 88
16 | CCCCCCCCCCCCN1C(=O)C=CC1=O | 56
17 | c1ccc2c(c1)ncc1nc(-c3nnn[nH]3)cn12 | 320 to 322
18 | Nc1ccc(N2CCN(c3ccc(OCC(O)(Cn4cncn4)c4ccc(Cl)cc4Cl)cc3)CC2)cc1 (stereo unspecified) | 120
19 | C[C@@]1(F)[C@H](OC(=O)c2ccccc2)[C@@H](COC(=O)c2ccccc2)O[C@H]1n1cnc2c(Cl)nc(N)nc21 | 160 to 162
20 | CCOC(=O)C(=O)Nc1cc(C(=O)O)ccc1O | > 300
21 | CCCN(CCC)Cc1csc(-c2ncn3c2[C@@H]2CCN2C(=O)c2c(Cl)cccc2-3)n1 | 200 to 201
22 | c1ccc(C(c2ccccc2)N2CCC2)cc1 | 107 to 109
23 | COC=C(C(=O)OC)c1ccccc1CSc1ccc2ccccc2c1 | 52 to 58
24 | COC(=O)Cn1cc([C@H]2CCC3C4CC=C5C[C@@H](O)CC[C@]5(C)C4CC[C@@]32C)nn1 (stereo partly specified) | 221 to 223

Further lines, results first:

Row | melting point [°C] | Compound
25 | 60 to 64 | O=C1N(CCCl)CCN1C1CCCCC1
26 | 138 to 139 | CC(C)CCOc1c(-c2ccc(S(C)(=O)=O)cc2)cnn(C(C)(C)C)c1=O
27 | 88 to 89 | CC(C)(C)OC(=O)N1CCN(c2ncccc2C=O)CC1
28 | 96 to 98 | CCOC(=O)Cc1ccc(Cn2c(-c3ccc(OC4CCCC4)cc3)c(C)c3cc(OCc4ccccc4)ccc32)cc1
29 | 63 to 65 | OCCc1cc(Br)ccc1O
30 | 180 to 181 | O=C1COCC(=O)NCCOCCN1
31 | 131 to 132 | CC(=O)Nc1cc(F)ccc1S(=O)(=O)CC#N
32 | 221 | COC(=O)c1ccc(/C=C/C(=O)O)c(Cl)c1
33 | 249 to 252 | CCCn1nc2c(N)nc3ncccc3c2c1CC(C)(C)C#N
34 | 169 to 170 | CCOC(=O)c1c(Cn2cncn2)nc2sc3c(c2c1-c1ccc(OC)c(OC)c1)CN(C(=O)OCc1ccccc1)CC3
35 | 158 to 160 | O=C(NC(=O)c1ccccc1Cl)Nc1cc(Cl)c(OC(F)(F)C(F)Cl)cc1Cl (stereo unspecified)
36 | 207 | O=CN(O)C1(CS(=O)(=O)c2ccc(Oc3ccc(OC(F)(F)F)cc3)cc2)CCC(C(=O)O)CC1 (stereo unspecified)
